In patent publication US7494976B2, “Caveolin peptides and their use as therapeutics” (Yale University, priority 2000, dated 2009):
Entries after “also recorded” stand apart in the source; their conditions may differ.

Assays:
isolated mouse aorta [1] = assay: Ach-induced relaxation of isolated mouse aortic rings (organ bath); details: 10 μM peptide, twenty hours incubation, PE precontracted rings
Procedure: (§1) For isolated mouse aortic rings preparations, male C57 black mice (5-7 weeks of age) were anesthetized with methoxyflurane and sacrificed by exsanguination. The thoracic aorta was dissected and cut into cylindrical segments of three millimeters in length. Using a sterile 48-well tissue culture plate, each ring was incubated in a total volume of one ml with either peptides or vehicle (DMSO) diluted in DMEM supplemented with penicillin (100 units/ml), streptomycin (100 μg/ml) and L-glutamine (1 mM). The plate was incubated with 5% CO2. Following incubation with the peptides (one, six, twelve or twenty hours), rings were washed in oxygenated (95% O2-5% CO2) Krebs-Henseleit bicarbonate buffer solution (KHS) of the following composition (NaCl—118.3 mmol/L, KCl—4.7 mmol/L, CaCl2—2.5 mmol/L, MgSO4—1.2 mmol/L, KH2PO4—1.2 mmol/L, NaHCO3—25 mmol/L, glucose—5.6 mmol/L at 37° C. with ibuprofen (10 μM). The rings were suspended by two tungsten wires ([…] thickness) inserted into the lumen and mounted in a vessel myograph system (five ml chamber, Kent Scientific). The mouse aortas were submitted to a resting tension of 1.5 grams and isometric tension was recorded using a force transducer coupled to a MacLab data acquisition system. […] In some experiments concentration-response curves to the contractile effects of PE were monitored.

isolated mouse aorta [2] = assay: Phenylephrine-induced contraction of isolated mouse aorta; details: 10 μM peptide preincubation
Procedure: as §1

mouse aortic rings = assay: L-NAME induced contraction of peptide-pretreated mouse aortic rings; details: vessels pretreated with 10 μM peptide; L-NAME 100 μM
Procedure: as §1, with “monitored. […]” for “monitored.”

isolated mouse aortas = assay: Sodium nitroprusside induced (endothelium independent) relaxation of mouse aorta; details: 10 μM peptide, twenty hours; SNP 10 μM
prostacyclin production = assay: Prostacyclin release from mouse aortic rings (6-keto-PGF1α by EIA); details: peptide twenty hours; Ach 1 μM thirty minutes
Procedure: To further test the specificity of AP-Cav, Ach-induced prostacyclin production was measured. For measurement of prostacyclin release, after twenty hour incubation period, aortic segments (4-5 mm) were placed in sterile 48-well tissue culture plates with 300 μl of KHS at 37° C. for thirty minutes in an incubator. Then aliquots of […] were taken in order to measure the basal release of prostacyclin. Ach (1 μM) was added and the plate was kept in the incubator for an additional thirty minutes. Aliquots were then taken in order to measure the Ach-stimulated release of prostacyclin. This protocol was performed in absence or in presence of ibuprofen (10 μM). The aliquots were frozen and prostacyclin release was measured as the stable breakdown product, 6-keto-PGF1α, by EIA (Amersham).

[3] = test system: bovine aortic endothelial cells (BAEC); assay: Ionomycin stimulated NO release from cultured endothelial cells (chemiluminescence); format: cell-based; details: 1 μM peptide six hours; ionomycin 1 μM thirty minutes
Procedure: For measurement of nitric oxide release from cultured endothelial cells, bovine aortic endothelial cells (BAEC) were cultured in high glucose Dulbecco's modified Eagle's medium (DMEM) containing 10% (v/v) fetal bovine serum, penicillin, streptomycin and L-glutamine. For measurement of ionomycin stimulated NO release, confluent BAEC were cultured in […]. Cells were washed and media was changed to serum free DMEM containing peptides or vehicle (0.01% DMSO). Following a six hour incubation, peptides were washed out and cells were stimulated with ionomycin (1 μM) for thirty minutes. Media was collected and processed for the measurement of nitrite (NO2—), the stable breakdown product of NO in aqueous solution, by NO-specific chemiluminescence. Samples containing NO2— were refluxed in glacial acetic acid containing sodium iodide. […] In all experiments, NO2— release was inhibitable by a NOS inhibitor.

[4] = test system: carrageenan induced paw edema; assay: Murine carrageenan induced paw edema model; format: in vivo, mouse; details: 1 mg/kg, paws 48 hours post-injection, H&E
Procedure: For in vivo inflammation studies the murine carrageenan induced paw edema model was used. Briefly, male, Swiss mice (25-30 grams) were divided in groups (n=6-7) and lightly anaesthetised with methoxyflurane. Each group of animals received a subplantar administration of 50 μl of 1% (w/v) λ carrageenan. Paw volume was measured using a hydroplethismometer modified for measuring small volumes (Ugo Basile) immediately before the carrageenan injection and twenty-four and forty-eight hours thereafter. The increase in paw volume is evaluated as the difference between paw volume at each time point and the basal volume. AP-Cav (0.3, 1 mg/kg i.p.) AP-Cav-X (1 mg/kg i.p.) and dexamethasone (0.1 mg/kg s.c.) were administered at the time of carrageenin administration (time zero) and at twenty-four and forty-eight hours. In a separate series of experiments, forty-eight hours post carrageenan injections, animals were sacrificed by cervical dislocation and both paws were cut. The right paws were embedded in OCT medium and cross sections ([…] of thickness) were obtained for staining with hematoxylin and eosin.

HepG-2 tumors = assay: HepG-2 tumor growth in nude mice; format: in vivo, mouse; details: 2.5 mg/kg, day fourteen
Procedure: The ability of the AP-Cav peptide to influence tumor growth in vivo was also examined. Nude mice were injected with the HepG-2 cells, a human hepatocarcinoma line, and the effects of AP-Cav and AP-Cav-X examined after daily administration of the peptides intraperitoneal. For HepG-2 cells implants in nude mice, the human hepatocarcinoma cell line, HepG-2, was cultured in minimal essential media with 10% fetal bovine serum, 2 mM L-glutamine, penicillin and streptomycin. Cells were grown on 150 mm dishes up to 80% confluence, trypsinized and ressuspended in serum free media. Viable cells were counted using the trypan blue exclusion method. A cell suspension was prepared at a density of 5×10^7 cells/ml. Nude mice were then injected in the flank with 100 μl of the HepG-2 cell suspension.
When the tumors reached a solid palpable mass (7-10 days), treatment with the different drugs began. Peptides were dissolved in 0.01% (v/v) DMSO and administered daily by i.p. injection (100 μl/20 gram mouse) for fourteen days. Tumor volume was determined every day using the formula width^2×length×0.52. For histochemistry tumors were excised from the animal at day fourteen, washed in phosphate buffered saline and fixed in 70% ethanol. […] Images were captured using a Zeiss microscope coupled to a CCD camera and were recorded with the NIH Image program.

vascular leakage = assay: Mustard oil induced Evans blue extravasation in the mouse ear (vascular permeability); format: in vivo; details: 2 mg/kg i.p., forty-five minute pretreatment; read after thirty minutes
Procedure: FIG. 10—AP-caveolin peptide reduces vascular leakage. Mice were pretreated with AP-Cav, AP-Cav-X (2 mg/kg of each, i.p.) or L-NAME (30 mg/kg, i.p.) for forty-five minutes followed by Evans blue administration (30 mg/kg, i.v.). Mustard oil was applied to the ventral and dorsal side of the right ear one minute after Evans blue injection. The extent of Evans blue extravasation was assessed after thirty minutes (n=4 mice per group for vehicle and L-NAME treated mice and n=5 for AP-Cav and AP-Cav-X treated mice; *p<0.05). (D) Representative pictures of mice subjected to mustard oil induced inflammation.
To directly assess if the AP-peptide can influence vascular leakage in an additional model, we treated mice with vehicle, AP-Cav, AP-Cav-X (2 mg/kg, i.p. for each; forty-five minute pretreatment) or L-NAME (30 mg/kg, i.p., […] pretreatment) and examined the ability of mustard oil to induce the extravasation of Evans blue, as an index of vascular permeability. […] Thus, in two distinct models, AP-Cav reduces inflammation likely through attenuating eNOS-dependent blood flow and/or permeability changes evoke by inflammatory stimuli.

## AP-Cav-X: Scrambled control peptide Cav-X (WGIDKAFFTTSTVTYKWFRY, SEQ ID NO: 9) fused to the antennapedia internalization sequence; SEQ ID NO: 12 (RQIKIWFQNRRMKWKKWGIDKAFFTTSTVTYKWFRY)
Isolated mouse aorta [1]
  effect on Ach-induced relaxation: did not influence Ach-induced relaxation
Isolated mouse aorta [2]
  potentiation of the vasoconstrictor actions of phenylephrine: but not AP-Cav-X resulted in potentiation
Mouse aortic rings
  further increase in isometric tension by L-NAME: further increased isometric tension
Isolated mouse aortas
  effect on vasorelaxant properties of sodium nitroprusside: had no effect
Prostacyclin production
  basal or Ach stimulated prostacyclin production (6-keto-PGF1α): Neither AP-Cav-X nor AP-Cav influenced; also recorded: do not affect Ach-induced prostacyclin release
[3]
  calcium ionophore stimulated NOx release: but not AP-Cav-X blocked
[4]
  cellular infiltration into the sites of inflammation (histology): did not show marked differences
HepG-2 tumors
  tumor morphology (hematoxylin and eosin): classical epitheliod appearance and were highly vascularized
Vascular leakage
  vascular leak (Evans blue extravasation): dilated vessels and diffuse blue dye in the periphery of the right ear
